Laboratory results taken from patent US20040023994A1 (priority 2002, published 2004).

Columns and labels:
Prostate cell lines [1] = test: cells
Melanoma cell lines [2] = system: Melanoma cell lines
UACC-62 = conditions: UACC-62, Melanoma, NCI database, cited from earlier work
[3] = system: all the cell lines included in the screen; test: cells
Protocol: cis-AVTP and trans-AVTG were tested in National Cancer Institute's (NCI) 60 cell lines derived from leukemia, melanoma, lung, kidney cancers. Most chemotherapeutic agents currently nd 6-TG, have been tested in this screen and a database he National Institutes of Health. The NCI assigned s-AVTP, and number NSC-722289 to trans-AVTG. tocol used for the cytotoxicity assessment in the NCI e from the National Institutes of Health. Briefly, tumor ma, lung, colon, brain, ovary, breast, prostate, and um containing 5% fetal bovine serum and 2 mM L-glutamine re plated in a 100 μL volume into 96 well microtiter 37° C. in humidified atmosphere supplemented with 5% ach cell line were fixed with trichloroacetic acid for f drug addition (Tz). The drugs, as 400-fold concentrated uted to twice the final maximum test concentration with entamicin. Additional four 10-fold dilutions were made us control. Aliquots (100 μl) of the drug solutions were 100 μl of medium, resulting in the required final drug the plates were incubated at 37° C. in humidified for additional 48 h. The assay was terminated by the w/v) trichloroacetic acid for adherent and suspension minutes at 4° C. The supernatant was discarded, the and air dried. A 100 μl aliquot of 0.4% (w/v) sulforhodamine B (SRB) solution in 1% acetic acid was added to each well, and the plates incubated for 10 minutes at room temperature. After staining, unbound dye was removed by washing five times with 1% acetic acid and the plates air dried. Bound stain was solubilized with 10 mM trizma base, and the absorbance read on a plate reader at a wavelength of 515 nm.
By using time zero (Tz), control growth (C), and test growth in the presence of drug at the five concentration levels (Ti), the percentage growth was calculated at each of the drug concentration levels. Percentage growth inhibition was calculated as:
[(Ti−Tz)/(C−Tz)]×100 for concentrations for which Ti>/=Tz
[(Ti−Tz)/Tz]×100 for concentrations for which Ti<Tz.
Three dose response parameters were calculated for each experimental agent. […] The TGI, the drug concentration resulting in total growth inhibition was calculated from Ti=Tz. The LC50 (the concentration of drug resulting in a 50% reduction in the measured protein at the end of the drug treatment as compared to that at the beginning) indicating a net loss of cells following treatment was calculated from [(Ti−Tz)/Tz]×100=−50. Values were calculated for each of these three parameters if the level of activity is reached; however, if the effect was not reached or was exceeded, the value for that parameter is expressed as greater or less than the maximum or minimum concentration tested.

Breast cell lines [4] = test: cells
Colon cell lines [5] = test: cells
CNS cell lines [6] = test: cells; conditions: Homo sapiens
Leukemia cell lines [7] = conditions: Leukemia
SNB-19 = conditions: SNB-19, CNS, NCI database, cited from earlier work
CNS cell lines [8] = system: CNS cell lines
A-498 cells = test: MTT cytotoxicity assay; assay type: cell-based, human; conditions: Homo sapiens, A498
Protocol: (§1) Preliminary studies examining the in vitro cytotoxicity of cis-AVTP and trans-AVTG as compared to the parent drugs, were carried out using the 3-[4,5-dimethylthiazol-2-yl]-2,5-diphenyl tetrazolium bromide (MTT) cytotoxicity assay.

ACHN cells = test: MTT cytotoxicity assay; assay type: cell-based, human; conditions: Homo sapiens
Protocol: as §1

Prostate cell lines [9] = system: Prostate cell lines
HCT-15 = conditions: HCT-15, Colon, NCI database, cited from earlier work
Breast cell lines [10] = system: Breast cell lines
NSCL cell lines [11] = test: cells
NSCL cell lines [12] = system: NSCL cell lines
Leukemia cell lines [13] = test: cells
Renal cell lines [14] = test: cells
Colon cell lines [15] = system: Colon cell lines
Renal cell lines [16] = system: Renal cell lines
Melanoma cell lines [17] = test: cells
Ovarian cell lines = test: NCI anticancer screen, by tissue type
[18] = read-out: LC50 (the source's name)

Which GI50 (Prostate cell lines [1]; read-out: median GI50) does the source give for `Sc1ncnc2nc[nH]c12` [6-MP, 6-mercaptopurine] here?
Its GI50 is 2.77 µM.

And the CC50 (Prostate cell lines [1]; read-out: median LC50)?
Its CC50 is > 100 µM.

And the “median TGI” value (Melanoma cell lines [2])?
Its value is >100 µM.

And the GI50 (UACC-62)?
Its GI50 is 1.63 µM.

What about the TGI (UACC-62) of the same molecule?
Its TGI is >100 µM.

What about the CC50 (UACC-62; [18]) of the same molecule?
The CC50 was > 100 µM.

And the “median TGI” value ([3]; all cell lines of the NCI screen)?
Its value is >100 µM.

What about the GI50 ([3]; read-out: median GI50) of the same molecule?
The GI50 was 3.97 µM.

And the CC50 ([3]; read-out: median LC50)?
Its CC50 is > 100 µM.

And the GI50 (Breast cell lines [4]; read-out: median GI50)?
Its GI50 is 9.42 µM.

What about the CC50 (Breast cell lines [4]; read-out: median LC50) of the same molecule?
The CC50 was > 100 µM.

And the GI50 (Colon cell lines [5]; read-out: median GI50)?
Its GI50 is 4.53 µM.

What about the CC50 (Colon cell lines [5]; read-out: median LC50) of the same molecule?
Its CC50 is > 100 µM.

What about the GI50 (CNS cell lines [6]; read-out: median GI50) of the same molecule?
Its GI50 is 6.64 µM.

And the CC50 (CNS cell lines [6]; read-out: median LC50)?
The CC50 was > 100 µM.

What about the “median TGI” value (Leukemia cell lines [7]) of the same molecule?
The value was >100 µM.

And the GI50 (SNB-19)?
Its GI50 is > 100 µM.

And the TGI (SNB-19)?
Its TGI is >100 µM.

What about the CC50 (SNB-19; [18]) of the same molecule?
The CC50 was > 100 µM.

And the “median TGI” value (CNS cell lines [8])?
Its value is >100 µM.

And the IC50 (A-498 cells; A-498, 72 h incubation, MTT)?
The IC50 was 60.6 ± 25.5 µM.

What about the IC50 (A-498 cells; A-498, 96 h drug incubation) of the same molecule?
Its IC50 is 14.9 ± 6.7 µM.

What about the IC50 (ACHN cells; 48 h drug incubation) of the same molecule?
Its IC50 is 44.8 ± 5 µM.

What about the IC50 (ACHN cells; 72 h incubation, MTT) of the same molecule?
Its IC50 is 6.3 ± 1.9 µM.

And the IC50 (ACHN cells; 96 h drug incubation)?
Its IC50 is 0.9 ± 0.3 µM.

What about the “median TGI” value (Prostate cell lines [9]) of the same molecule?
The value was >100 µM.

And the GI50 (HCT-15)?
The GI50 was 4.38 µM.

And the TGI (HCT-15)?
The TGI was >100 µM.

And the CC50 (HCT-15; [18])?
The CC50 was > 100 µM.

And the “median TGI” value (Breast cell lines [10])?
Its value is >100 µM.

And the GI50 (NSCL cell lines [11]; read-out: median GI50)?
Its GI50 is 3.74 µM.

And the CC50 (NSCL cell lines [11]; read-out: median LC50)?
Its CC50 is > 100 µM.

And the “median TGI” value (NSCL cell lines [12])?
The value was >100 µM.

What about the GI50 (Leukemia cell lines [13]; read-out: median GI50) of the same molecule?
The GI50 was 1.39 µM.

And the CC50 (Leukemia cell lines [13]; read-out: median LC50)?
The CC50 was > 100 µM.

And the GI50 (Renal cell lines [14]; read-out: median GI50)?
The GI50 was 4.33 µM.

What about the CC50 (Renal cell lines [14]; read-out: median LC50) of the same molecule?
The CC50 was > 100 µM.

And the “median TGI” value (Colon cell lines [15])?
Its value is >100 µM.

What about the “median TGI” value (Renal cell lines [16]) of the same molecule?
Its value is >100 µM.

What about the GI50 (Melanoma cell lines [17]; read-out: median GI50) of the same molecule?
Its GI50 is 5.04 µM.

What about the CC50 (Melanoma cell lines [17]; read-out: median LC50) of the same molecule?
Its CC50 is > 100 µM.

What about the “median TGI” value (Ovarian cell lines; Ovarian) of the same molecule?
The value was >100 µM.

And the GI50 (Ovarian cell lines; read-out: median GI50)?
Its GI50 is 4.77 µM.

What about the CC50 (Ovarian cell lines; read-out: median LC50) of the same molecule?
Its CC50 is > 100 µM.
